# Reference: US12653191B2, “Active compound combinations” (Bayer Aktiengesellschaft, priority 2020, dated 2026)
# Read-outs that look alike come from different tables or passages of the source.
# Legend:
# Cercospora beticola [1] = assay: in vitro-Test with fungal microorganisms, Method A (tables C1-C10); assay type: cell-based
# In short: (§1)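 Compound was dried into wells and overlaid with liquid potato dextrose medium containing spores or mycelium of the fungus. Plates were held at 20° C and 85% RH, and growth was read as extinction at 620 nm after 3–5 days. Efficacy is relative to the untreated control (0% = control growth, 100% = no growth).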
# [2] = system: Ustilago segetum var. avenae; assay: in vitro-Test with fungal microorganisms, Method A (tables I1-I5); assay type: cell-based
# In short: as §1
# Parastagonospora nodorum [3] = assay: in vitro-Test with fungal microorganisms, Method B (tables H5-H8); assay type: cell-based; details: Parastagonospora nodorum
# In short: (§2)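 Steps: solvent evaporation leaves the compound coating the wells; fungus-inoculated liquid growth medium goes on top; absorbance at 600 nm is measured; incubation runs 3 to 7 days at 20° C. with 85% relative humidity. Inhibition is then read photometrically and expressed as efficacy against untreated control.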
# Botrytis cinerea = assay: in vitro-Test with fungal microorganisms, Method A (tables B1-B14); assay type: cell-based; details: Botrytis cinerea
# In short: as §1
# Cercospora beticola [4] = assay: in vitro-Test with fungal microorganisms, Method B (tables C11-C20); assay type: cell-based; details: Cercospora beticola, read-out: Efficacy %
# In short: as §2
# Cordana musae [5] = assay: in vitro-Test with fungal microorganisms, Method B (tables E9-E16); assay type: cell-based; details: for Efficacy %: single substance
# In short: as §2
# Alternaria alternata = assay: in vitro-Test with fungal microorganisms, Method B (tables A13-A22); assay type: cell-based; details: Alternaria alternata
# In short: as §2
# Diaporthe citri [6] = assay: in vitro-Test with fungal microorganisms, Method A (tables F1-F11); assay type: cell-based; details: Diaporthe citri
# In short: as §1
# Alternaria alternate = assay: in vitro-Test with fungal microorganisms, Method A (tables A1-A12); assay type: cell-based, Alternaria alternata
# In short: as §1
# Cordana musae [7] = assay: in vitro-Test with fungal microorganisms, Method A (tables E1-E8); assay type: cell-based; details: Neocordana musae
# In short: as §1
# Diaporthe citri [8] = assay: in vitro-Test with fungal microorganisms, Method B (tables F12-F15); assay type: cell-based
# In short: as §2
# [9] = system: Colletotrichum lindemuthianum; assay: in vitro-Test with fungal microorganisms, Method A (tables D1-D8); assay type: cell-based; details: Colletotrichum lindemuthianum
# In short: as §1
# Parastagonospora nodorum [10] = assay: in vitro-Test with fungal microorganisms, Method A (tables H1-H4); assay type: cell-based
# In short: as §1
# Colletotrichum coccodes = assay: in vitro-Test with fungal microorganisms, Method B (tables J1-J11); assay type: cell-based; details: Colletotrichum coccodes
# In short: as §2
# Fusarium culmorum [11] = assay: in vitro-Test with fungal microorganisms, Method A (tables G1-G4); assay type: cell-based; details: Fusarium culmorum, alone, read-out: Efficacy
# In short: as §1
# Fusarium culmorum [12] = assay: in vitro-Test with fungal microorganisms, Method B (tables G5-G15); assay type: cell-based; details: Fusarium culmorum, read-out: Efficacy
# In short: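 Efficacy, relative to untreated control (0% = growth as in control, 100% = no growth), from photometric growth measurement at 600 nm after 3 to 7 days at 20° C., 85% relative humidity. Compound applied in methanol+emulsifier, solvent evaporated, then spore/mycelium-amended liquid medium added.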
# [13] = system: Ustilago segetum var. avenae; assay: in vitro-Test with fungal microorganisms, Method B (tables I6-I11); assay type: cell-based; details: read-out: Efficacy %
# In short: as §2
# [14] = read-out: Efficacy %, alone, 1.0 ppm
# [15] = read-out: Efficacy %, alone, 5.0 ppm
# [16] = read-out: Efficacy %, mixing partner alone, 0.04 ppm
# [17] = read-out: Efficacy %, mixing partner alone, 0.2 ppm
# [18] = read-out: Efficacy %, mixing partner alone, 1.0 ppm
# [19] = read-out: Efficacy %, mixing partner alone, 5.0 ppm
smiles,measurement,setting,value
"N#Cc1c[nH]cc1-c1cccc2c1OC(F)(F)O2 [(13.001) fludioxonil, fludioxonil]",Efficacy %,Cercospora beticola [1]; 5.0 ppm alone,98%
same,inhibition of growth at 0.04 ppm,"Cercospora beticola [1]; Cercospora beticola, read-out: Efficacy %, 0.04 ppm",0%
same,inhibition of growth at 0.04 ppm,"Cercospora beticola [1]; Cercospora beticola, read-out: Efficacy %, 0.04 ppm alone",0%
same,inhibition of growth at 0.2 ppm,"Cercospora beticola [1]; Cercospora beticola, read-out: Efficacy %, 0.2 ppm alone",14%
same,inhibition of growth at 1 ppm,"Cercospora beticola [1]; Cercospora beticola, read-out: Efficacy %, 1.0 ppm",55%
same,inhibition of growth at 5 ppm,"Cercospora beticola [1]; Cercospora beticola, read-out: Efficacy %, 5.0 ppm",90%
same,inhibition of growth at 5 ppm,"Cercospora beticola [1]; Cercospora beticola, read-out: Efficacy %, 5.0 ppm alone",93%
same,inhibition of growth at 0.04 ppm,"[2]; read-out: Efficacy %, alone, 0.04 ppm",19%
same,inhibition of growth at 1 ppm,[2]; [14],100%
same,inhibition of growth at 5 ppm,[2]; [15],100%
same,inhibition of growth at 1 ppm,"Parastagonospora nodorum [3]; read-out: Efficacy, 1 ppm",58%
same,inhibition of growth at 5 ppm,"Parastagonospora nodorum [3]; read-out: Efficacy, 5 ppm",98%
same,inhibition of growth at 0.2 ppm,"Botrytis cinerea; read-out: Efficacy %, alone, 0.2 ppm",100%
same,inhibition of growth at 1 ppm,Botrytis cinerea; [14],100%
same,inhibition of growth at 5 ppm,Botrytis cinerea; [15],100%
same,inhibition of growth at 0.04 ppm,"Botrytis cinerea; read-out: Efficacy, 0.04 ppm",19%
same,inhibition of growth at 0.2 ppm,"Botrytis cinerea; read-out: Efficacy, 0.2 ppm",100%
same,inhibition of growth at 5 ppm,Cercospora beticola [4],93%
same,inhibition of growth at 0.04 ppm,"Cordana musae [5]; Neocordana musae, read-out: Efficacy",6%
same,Efficacy %,Cordana musae [5]; 0.2 ppm,0%
same,Efficacy %,Cordana musae [5]; 1 ppm,0%
same,Efficacy %,Cordana musae [5]; 5 ppm,11%
same,inhibition of growth at 1 ppm,"Alternaria alternata; read-out: Efficacy, 1 ppm",88%
same,inhibition of growth at 5 ppm,"Alternaria alternata; read-out: Efficacy, 5 ppm",100%
same,inhibition of growth at 0.04 ppm,"Alternaria alternata; read-out: Efficacy, single compound, 0.04 ppm",13%
same,inhibition of growth at 0.2 ppm,"Alternaria alternata; read-out: Efficacy, single compound, 0.2 ppm",18%
same,inhibition of growth at 5 ppm,"Alternaria alternata; read-out: Efficacy, single compound, 5 ppm",99%
same,inhibition of growth at 0.04 ppm,"Diaporthe citri [6]; read-out: Efficacy, applied alone, 0.04 ppm",0%
same,inhibition of growth at 0.2 ppm,"Diaporthe citri [6]; read-out: Efficacy, applied alone, 0.2 ppm",0%
same,inhibition of growth at 0.04 ppm,"Alternaria alternate; Alternaria, read-out: Efficacy %, applied alone, 0.04 ppm",9%
same,inhibition of growth at 0.2 ppm,"Alternaria alternate; Alternaria, read-out: Efficacy %, applied alone, 0.2 ppm",17%
same,inhibition of growth at 1 ppm,"Alternaria alternate; Alternaria, read-out: Efficacy %, applied alone, 1.0 ppm",97%
same,inhibition of growth at 5 ppm,"Alternaria alternate; Alternaria, read-out: Efficacy %, applied alone, 5.0 ppm",100%
same,Efficacy %,"Alternaria alternate; applied alone, 0.04 ppm",0%
same,inhibition of growth at 0.04 ppm,Cordana musae [7]; [16],2%
same,inhibition of growth at 0.2 ppm,Cordana musae [7]; [17],0%
same,inhibition of growth at 1 ppm,Cordana musae [7]; [18],83%
same,inhibition of growth at 5 ppm,Cordana musae [7]; [19],55%
same,inhibition of growth at 0.04 ppm,"Cordana musae [7]; read-out: Efficacy %, single substance, 0.04 ppm",0%
same,Efficacy,"Diaporthe citri [8]; Table F12, 0.2 ppm alone",0%
same,Efficacy,"Diaporthe citri [8]; Table F12, 1 ppm alone",9%
same,Efficacy,"Diaporthe citri [8]; Table F13, 1 ppm alone",41%
same,Efficacy,"Diaporthe citri [8]; Table F13, 5 ppm alone",0%
same,inhibition of growth at 0.04 ppm,[9]; [16],11%
same,inhibition of growth at 0.2 ppm,[9]; [17],60%
same,inhibition of growth at 1 ppm,[9]; [18],85%
same,inhibition of growth at 5 ppm,[9]; [19],90%
same,inhibition of growth at 0.04 ppm,"[9]; read-out: Efficacy %, single active at 0.04 ppm",0%
same,inhibition of growth at 0.2 ppm,"[9]; read-out: Efficacy %, single active at 0.2 ppm",58%
same,inhibition of growth at 5 ppm,"[9]; read-out: Efficacy %, single active at 5.0 ppm",88%
same,Efficacy,Parastagonospora nodorum [10]; 0.04 ppm,0%
same,Efficacy,Parastagonospora nodorum [10]; 0.2 ppm,0%
same,Efficacy,"Parastagonospora nodorum [10]; single active compound, 0.04 ppm",0%
same,Efficacy,"Parastagonospora nodorum [10]; single active compound, 0.2 ppm",0%
same,Efficacy,"Parastagonospora nodorum [10]; single active compound, 1.0 ppm",38%
same,Efficacy,"Parastagonospora nodorum [10]; single active compound, 5.0 ppm",64%
same,inhibition of growth at 0.04 ppm,"Colletotrichum coccodes; read-out: Efficacy %, 0.04 ppm",54%
same,inhibition of growth at 1 ppm,"Colletotrichum coccodes; read-out: Efficacy %, 1 ppm",100%
same,inhibition of growth at 5 ppm,"Colletotrichum coccodes; read-out: Efficacy %, 5 ppm",100%
same,inhibition of growth at 0.04 ppm,"Colletotrichum coccodes; read-out: Efficacy %, single active compound at 0.04 ppm",74%
same,inhibition of growth at 0.2 ppm,Fusarium culmorum [11]; 0.2 ppm,36%
same,inhibition of growth at 1 ppm,Fusarium culmorum [11]; 1.0 ppm,98%
same,inhibition of growth at 5 ppm,Fusarium culmorum [11]; 5.0 ppm,99%
same,inhibition of growth at 0.04 ppm,Fusarium culmorum [12]; alone,0%
same,inhibition of growth at 0.2 ppm,Fusarium culmorum [12]; alone,22%
same,inhibition of growth at 1 ppm,Fusarium culmorum [12]; alone,68%
same,inhibition of growth at 5 ppm,"Fusarium culmorum [12]; 5 ppm, alone",98%
same,inhibition of growth at 0.04 ppm,Fusarium culmorum [12]; single active compound,0%
same,inhibition of growth at 0.2 ppm,Fusarium culmorum [12]; single active compound,26%
same,inhibition of growth at 1 ppm,Fusarium culmorum [12]; single active compound,88%
same,inhibition of growth at 0.04 ppm,[13],55%
same,inhibition of growth at 0.2 ppm,[13],93%
same,inhibition of growth at 5 ppm,[13],100%
